Data reported in patent US10835506B2, “Treatment and prevention of muscle loss using L-ornithine in combination with at least one of phenylacetate and phenylbutyrate” (OCERA THERAPEUTICS, INC., priority 2015, dated 2020).

Test system: Fisher 344×Brown Norway (FBN) rat
Test: Treatment of sarcopenia (age-related muscle loss) in FBN hybrid rats
Assay type: in vivo
Settings: middle age and/or old FBN hybrid rats; OP administered e.g. orally
Description: The Fisher 344×Brown Norway (FBN) rat model has been recommended by the National Institute on Aging (NIA) for age-related research. […] Significant muscle mass loss, a reduction in muscle CSA, and muscle fiber loss are expected in, for example, the quadriceps muscles of the aged rat.
OP is administered, for example orally, to young, middle age, and old FBN hybrid rats.

L-ornithine phenylacetate [OP]
muscle mass loss: effective in reducing muscle mass loss
